In patent publication US10426817B2, “Treatment of age-related macular degeneration and other eye diseases with apolipoprotein mimetics” (MacRegen, Inc., priority 2017, dated 2019):

Columns and labels:
[1] = in vivo; cited from earlier work
[2] = system: neutral lipids in and on the Bruch's membrane; assay: Oil red O (ORO) staining of neutral lipids in Bruch's membrane, macaque study; format: in vivo, Macaca fascicularis; details: eyes injected with L-4F vs eyes injected with placebo (scrambled L-4F); 6 monthly intravitreal injections, total 625 μg; after 6 months
Experimental: (§1) The macaque study was conducted according to accepted guidelines.
For staining with oil red O (ORO), specimens were treated with a 0.3% oil red O (Sigma-Aldrich Biochemie GmbH, Hamburg, Germany) solution (in 99% isopropanol) for 30 min at room temperature (RT), followed by immersion in a 60% isopropanol solution for 12 min. After the specimens were washed with deionized water for 3 min, counter-staining was conducted with hematoxylin (Carl Roth GmbH, Karlsruhe, Germany). The specimens were then mounted with mounting solution (Aquatex from Merck Millipore, Darmstadt, Germany), covered with a glass cover slip (Menzel-Graeser GmbH), and examined using a fully automated inverted light microscope for life science (DMI 6000 from Leica Microsystems Wetzlar, Germany). Image analysis was performed by grading the intensity of ORO staining (red color) of the Bruch's membrane (BrM) with scores ranging from 0 to 4, according to a qualitative evaluation assessed in four different regions in two separate slices from each eye (a total of 8 different regions from each eye). Qualitative ORO staining scores at the BrM and the choroid: 0=no staining; 1=+; 2=++; 3=+++; 4=++++.

[3] = system: esterified cholesterol in the Bruch's membrane; assay: Filipin staining of esterified cholesterol in Bruch's membrane, macaque study; format: in vivo, Macaca fascicularis; details: eyes injected with L-4F vs placebo-injected eyes; 6 monthly intravitreal injections
Experimental: as §1
For staining with filipin, specimens were washed once with deionized water for 5 min and then treated with 70% ethanol for 45 min. After being washed with deionized water for 5 min, the specimens were treated with cholesterol esterase (8.12 units/mL) diluted in 0.1 M potassium phosphate buffer (PPB, pH 7.4) for 3.5 hr at 37° C. The specimens were then washed sequentially with PPB and with phosphate buffered saline (PBS) twice for 3 min, followed by a wash with cold (4° C.) PBS overnight. Filipin staining was then performed with 250 μg/mL filipin (Sigma-Aldrich Biochemie GmbH, Hamburg, Germany), diluted in N,N-dimethylformamide (Merck Millipore, Darmstadt, Germany), for 60 min at RT with light shielding. The specimens were then washed sequentially with PBS and deionized water, mounted with a mounting solution (Mowiol®, Carl Roth GmbH, Karlsruhe, Germany), covered with a glass cover slip, and examined using an inverted fluorescence microscope (DMI 6000 from Leica Microsystems, Wetzlar, Germany). Filipin fluorescence was observed using a UV filter set (λex/λem=350 nm/455 nm). […] Semiquantitative analysis of fluorescence intensity of filipin at three separate regions of the BrM was done on three different slides from the same eye (a total of 9 different regions from each eye).

[4] = system: membrane attack complex (MAC, C5b-9); assay: Immunohistochemistry of membrane attack complex, macaque study; format: in vivo, Macaca fascicularis; details: eyes injected with L-4F vs eyes injected with the scrambled peptide; 6 monthly intravitreal injections
Experimental: as §1
(§2) Assays for immunohistochemistry of the membrane attack complex (MAC, C5b-9) and complement factor D (CFD) were performed identically except for employment of monoclonal antibodies specific for each complement component. Specimens were treated with 10 μg/mL protease K (Sigma-Aldrich Biochemie GmbH, Hamburg, Germany) in PBS for antigen retrieval for 30 min at RT. Subsequently the sections were blocked with a solution of goat serum (5% goat serum, 0.3% Triton X-100 in PBS) for 60 min at RT. The specimens were then reacted with a first antibody against either C5b-9 (diluted 1:30 in PBS, mouse monoclonal antibody, Dako Deutschland GmbH, Hamburg, Germany) or complement factor D (diluted 1:200 in PBS, mouse monoclonal antibody, Santa Cruz Biotechnology, Dallas, Tex., USA) overnight at 4° C. […] Fluorescence microscopy was conducted using an inverted fluorescence microscope (DMI 6000 from Leica Microsystems, Wetzlar, Germany) and a filter set for λex/λem=470 nm/525 nm. For the semiquantitative analysis of fluorescence intensity of C5b-9, 3-5 different regions in one slide were analyzed for 3 different slides from each eye (a total of 9-15 different regions from each eye). For the semiquantitative analysis of fluorescence intensity of complement factor D, 3 distinct regions for each eye were evaluated.

[5] = system: complement factor D (CFD); assay: Immunohistochemistry of complement factor D, macaque study; format: in vivo, Macaca fascicularis; details: eyes injected with L-4F vs eyes injected with the scrambled peptide; 6 monthly intravitreal injections
Experimental: as §1, §2

Bruch's membrane = Bruch's membrane thickness at the temporal outer macula by electron microscopy, macaque study; format: in vivo, Macaca fascicularis
Experimental: as §1
Lipid deposition in the Bruch's membrane contributes to thickening of the BrM. Bruch's membrane thickness was measured at the temporal outer macula of enucleated eyes examined by electron microscopy post-mortem.

[6] = system: geriatric macaques with naturally occurring age-related maculopathy; assay: Macaque study of age-related maculopathy: fellow-eye effects and tolerability; format: in vivo; details: 6 monthly intravitreal injections, all macaques
Experimental: as §1

[7] = system: high-sensitivity C-reactive protein (hsCRP); details: cynomolgus monkey, in vivo
Experimental: The macaque study was conducted according to accepted guidelines. […] One eye per animal received 6 monthly injections of the same escalating dosages of L-4F or scrambled L-4F (total of 625 μg) in a 50 μL volume. The second eye per animal was not injected and was just observed.
Clinical laboratory tests including serology, hemograms and liver enzymes were conducted, and ophthalmic examinations were also performed, including fundus photographs, optical coherence tomography (OCT), intraocular pressure testing and blood sampling. After 7 months, all animals were sacrificed and eyes were immediately prepared for histology.
Circulating hsCRP, which is mainly produced in the liver, is a non-specific marker for systemic inflammation.

geographic atrophy = details: monthly intravitreal injections of 10 mg for 18 months, cited from earlier work

For “bevacizumab: anti-VEGF antibody or fragment thereof”, the intravitreal half-life [1] is listed as “about 9.8 days”.

In the case of “ranibizumab: anti-VEGF antibody or fragment thereof”, the intravitreal half-life [1] is listed as “about 7.1 days”.

In the case of “Ac-DWFKAFYDKVAEKFKEAF-NH2 [L-4F, Ac-DWFKAFYDKVAEKFKEAF-NH2 acetate salt (SEQ. ID. NO. 13)]”, the “reduction of lipid deposits from the BrM (oil red O staining)” value [2] is reported as “about 56%”, the “reduction of esterified cholesterol in the BrM (filipin fluorescence, semiquantitative)” value [3] is reported as “about 68%” and the “decreased level of MAC (C5b-9) in the BrM and the choriocapillaris (fluorescence intensity, semiquantitative)” value [4] is reported as “about 58%”. The “decreased level of complement factor D (fluorescence intensity, semiquantitative)” value [5] was “about 41%”, the “reduction of BrM thickness” value (Bruch's membrane; eyes injected with L-4F vs eyes injected with placebo) was “about 24%” and the “BrM thickness at the temporal outer macula” value (Bruch's membrane; injected eyes, electron microscopy post-mortem, mean ± SE) was 1.31 μm. For the same substance, the “tolerability (significant adverse event or side effect)” value [6] was “well tolerated” and the “blood level of hsCRP” value [7] was “did not increase”.

In the case of “lampalizumab: antigen-binding fragment (Fab) of a humanized monoclonal antibody targeting complement factor D (CFD)”, the “reduction in the area of geographic atrophy in the injected eye” value (geographic atrophy; fundus autofluorescence, vs placebo) is given as “about 20%” and the “reduction in the area of geographic atrophy, subgroup positive for the CFI biomarker” value (geographic atrophy) is given as “about 44%”.

In the case of “aflibercept: soluble fusion protein containing one or more extracellular domains of one or more VEGFRs; anti-VEGF agent”, the intravitreal half-life [1] is listed as “about 9.0 days”.
